Measurements: patent publication US20230295133A1, “PROCESS FOR PREPARING A COMPOUND USEFUL TO TREAT MYCOSES” (PULMOCIDE LIMITED, priority 2014, published 2023)
Converted amounts (≈) assume the structure as drawn.

Columns and labels:
[1] = Cell viability: resazurin assay; format: cell-based, human; conditions: human, BEAS2B cells; n = 3-5
Experimental: BEAS2B cells were seeded in 384-well plates (100 µL; 3000 / well /; BD Falcon, Catalogue No 353962) in RPMI-LHC8 (RPMI-1640 and LHC8 media combined in equal proportions) one day before experimentation. For cell-free control wells, RPMI-LHC8 (100 µL) was added. Test compounds (0.5 µL of a DMSO solution) were added to give a final DMSO concentration of 0.5% using an Integra VIAFLO 96 (Integra, Zizers, Switzerland). BEAS2B cells were incubated with each test compound for 1 day (37° C. / 5% CO2 in RPMI-LHC8). After addition of resazurin stock solution (5 µL, 0.04%) the plates were incubated for a further 4 hr (37° C. / 5% CO2). The fluorescence of each well at 545 nm (excitation) and 590 nm (emission) was determined using a multi-scanner (Clariostar: BMG Labtech). The percentage loss of cell viability was calculated for each well relative to vehicle (0.5% DMSO) treatment. Where appropriate, a CC50 value was calculated from the concentration-response curve generated from the concentration-response curve for each test compound.

[2] = system: Aspergillus fumigatus NCPF2010; experiment: Broth microdilution assay (modified EUCAST); format: cell-based; conditions: Aspergillus fumigatus, NCPF2010, read-out: MIC75 against Aspergillus fumigatus isolate NCPF2010
Experimental: (§1) This assay was conducted using a modified method published by EUCAST (Rodriguez-Tudela et al., 2008). Spores of aspergillus fumigatus (NCPF2010, NCPF7010 (Methionine 220 mutation), NCPF7099 (Glycine G54 mutation) from Public Health England, Wiltshire; TR34/L98H mutants from St Louis Hospital, Paris, France) were cultured in Sabouraud dextrose agar for 3 days. A stock spore suspension was prepared from a Sabouraud dextrose agar culture by washing with PBS-tween (10 mL; PBS containing 0.05% Tween-20, 100 U/mL Penicillin and 100 U/mL Streptomycin). The spore count was assessed using a Neubauer haemocytometer and then adjusted to 10^6 spores/mL with PBS. A working suspension of spores (2 × 10^5 spores/mL) was prepared in filter sterilised, BSA MOPS RPMI-1640 (50 mL; RPMI-1640 containing 2 mM L-glutamine, 0.5% BSA, 2% glucose, 0.165 M MOPS, buffered to pH 7 with NaOH). For the assay, BSA MOPS RPMI-1640 (50 µL/well) was added throughout the 384-well plate (Catalogue number 353962, BD Falcon, Oxford, UK) first. Test compounds (0.5 µL DMSO solution) were then added in quadruplicate using an Integra VIAFLO 96 (Integra, Zizers, Switzerland), and mixed well using a plate mixer. Subsequently 50 µL of the working spore suspension prepared above was added to all wells except non-spore control wells. For non-spore control wells, BSA MOPS-RPMI solution (50 µL/well) was added instead. The plate was covered with a plastic lid, and incubated (35° C. with ambient air) for 48 hr. The OD of each well at 530 nm was determined using a multi-scanner (Clariostar: BMG, Buckinghamshire, UK). The percentage inhibition for each well was calculated and the MIC50, MIC75 and MIC90 values were calculated from the concentration-response curve generated for each test compound.

[3] = system: Aspergillus fumigatus L98H (TR34/L98H); experiment: Broth microdilution assay (modified EUCAST); format: cell-based; conditions: Aspergillus fumigatus, read-out: MIC75 against Aspergillus fumigatus isolate L98H
Experimental: as §1

[4] = system: Aspergillus fumigatus NCPF7099; experiment: Broth microdilution assay (modified EUCAST); format: cell-based; conditions: Aspergillus fumigatus, NCPF7099, n = 3, read-out: MIC75 against Aspergillus fumigatus isolate NCPF7099
Experimental: as §1

[5] = system: Aspergillus fumigatus NCPF7100; experiment: Broth microdilution assay (modified EUCAST); format: cell-based; conditions: Aspergillus fumigatus, NCPF7100, read-out: MIC75 against Aspergillus fumigatus isolate NCPF7100
[6] = system: aspergillus fumigatus infection of BEAS2B cells; experiment: Aspergillus fumigatus infection of bronchial epithelial cells (GM in supernatant); format: cell-based; conditions: bronchial epithelial cells infected with Aspergillus fumigatus; read-out: MIC50 Infection of BEAS2B cells
Experimental: BEAS2B cells were seeded in 96-well plates (100 µL; 30,000 cells / well; Catalogue No 3596, Sigma Aldrich, Dorset, UK) in 10% FBS RPMI-1640 and were then incubated (37° C., 5% CO2) for one day before experimentation. Test compounds (0.5 µL DMSO solution) or vehicle (DMSO) were added to each well to give a final DMSO concentration of 0.5%. BEAS2B cells were incubated with test compounds for 1 hr (35° C., 5% CO2) before infection with aspergillus fumigatus (20 µL; Public Health England) conidia suspension (0.5×10^5 /ml in 10% FBS RPMI-1640). The plate was incubated for 24 hr (35° C., 5% CO2). Supernatant (50 µL) was collected and transferred to a PCR plate (Catalogue No L1402-9700, Starlab, Milton Keynes, UK), which was frozen (-20° C.) until use. After thawing, supernatant (5 µL) was diluted 1:20 by adding R7-PBS solution (95 µL; 1:4 R7 to PBS; Bio-Rad Laboratories, Redmond, WA, USA). GM levels in these samples (50 µL) were measured using Platelia GM-EIA kits (Bio-Rad Laboratories, Redmond, WA, USA). The percentage inhibition for each well was calculated and the IC50 value was calculated from the concentration-response curve generated for each test compound.

In the case of `Cc1cc(N2CCN(c3ccc(C(=O)Nc4cc(F)cc(F)c4)cc3)CC2)ccc1OC[C@@H]1CO[C@@](Cn2cncn2)(c2ccc(F)cc2F)C1` [Example 28, 4-(4-(4-(((3R, 5R)-5-((1H-1,2,4-triazol-1-yl)methyl)-5-(2,4-difluorophenyl)tetrahydrofuran-3-yl)methoxy)3-methylphenyl)piperazin-1-yl)-N-(3,5-difluorophenyl)benzamide], the CC50 at 1 day [1] is reported as > 14.3 µM, the MIC [2] is reported as 0.0319 µM (≈ 0.0224 µg/mL) and the MIC [3] is reported as 0.198 µM (≈ 0.139 µg/mL). For the same compound, the MIC [4] was 0.0266 µM (≈ 0.0186 µg/mL), the MIC [5] was 0.0361 µM (≈ 0.0253 µg/mL) and the MIC50 [6] was 0.0117 µM (≈ 0.0082 µg/mL).
For `COc1cc(C(=O)Nc2ccc(F)cc2)ccc1N1CCN(c2ccc(OC[C@@H]3CO[C@@](Cn4cncn4)(c4ccc(F)cc4F)C3)c(C)c2)CC1` [Example 34, 4-(4-(4-(((3R, 5R)-5-((1H-1,2,4-triazol-1-yl)methyl)-5-(2,4-difluorophenyl)tetrahydrofuran-3-yl)methoxy)3-methylphenyl)piperazin-1-yl)-N-(4-fluorophenyl)-3-methoxybenzamide], the CC50 at 1 day [1] was > 14 µM, the MIC [2] was 0.0446 µM (≈ 0.0318 µg/mL) and the MIC [3] was 0.0739 µM (≈ 0.0527 µg/mL). It also gave an MIC [4] of 0.029 µM (≈ 0.0207 µg/mL), an MIC [5] of 0.0148 µM (≈ 0.0105 µg/mL) and an MIC50 [6] of 0.0219 µM (≈ 0.0156 µg/mL).
In the case of `N#Cc1ccc(NC(=O)c2ccc(N3CCN(c4ccc(OCC5CO[C@@](Cn6cncn6)(c6ccc(F)cc6F)C5)c(Cl)c4)CC3)cc2)cc1` (stereo in doubt) [Example 10, 4-(4-(4-(((3R,5R)-5-((1H-1,2,4-triazol-1-yl)methyl)-5-(2,4-difluorophenyl)tetrahydrofuran-3-yl)methoxy)-3-chlorophenyl)piperazin-1-yl)-N-(4-cyanophenyl)benzamide], the CC50 at 1 day [1] is reported as > 14.1 µM, the MIC [2] is reported as 0.022 µM (≈ 0.0156 µg/mL) and the MIC [3] is reported as 0.0812 µM (≈ 0.0577 µg/mL). For the same compound, the MIC [4] was 0.00996 µM (≈ 0.00707 µg/mL), the MIC [5] was 0.0295 µM (≈ 0.021 µg/mL) and the MIC50 [6] was 0.0145 µM (≈ 0.0103 µg/mL).
With `Cc1cc(N2CCN(c3ccc(C(=O)Nc4ccc(Cl)cc4F)cc3)CC2)ccc1OC[C@@H]1CO[C@@](Cn2cncn2)(c2ccc(F)cc2F)C1` [Example 29, 4-(4-(4-(((3R, 5R)-5-((1H-1,2,4-triazol-1-yl)methyl)-5-(2,4-difluorophenyl)tetrahydrofuran-3-yl)methoxy)-3-methylphenyl)piperazin-1-yl)-N-(4-chloro-2-fluorophenyl)benzamide] the CC50 at 1 day [1] was > 13.9 µM, the MIC [2] was 0.0285 µM (≈ 0.0204 µg/mL) and the MIC [3] was 0.12 µM (≈ 0.0861 µg/mL). For the same compound, the MIC [4] was 0.037 µM (≈ 0.0265 µg/mL), the MIC [5] was 0.0538 µM (≈ 0.0386 µg/mL) and the MIC50 [6] was 0.0145 µM (≈ 0.0104 µg/mL).
In the case of `Cc1cc(N2CCN(c3ccc(C(=O)Nc4cc(F)ccc4F)cc3)CC2)ccc1OC[C@@H]1CO[C@@](Cn2cncn2)(c2ccc(F)cc2F)C1` [Example 26, 4-(4-(4-(((3R, 5R)-5-((1H-1,2,4-triazol-1-yl)methyl)-5-(2,4-difluorophenyl)tetrahydrofuran-3-yl)methoxy)-3-methylphenyl)piperazin-1-yl)-N-(2,5-difluorophenyl)benzamide], the CC50 at 1 day [1] is reported as > 14.3 µM, the MIC [2] is reported as 0.0311 µM (≈ 0.0218 µg/mL) and the MIC [3] is reported as 0.126 µM (≈ 0.0883 µg/mL). For the same compound, the MIC [4] was 0.131 µM (≈ 0.0918 µg/mL), the MIC [5] was 0.091 µM (≈ 0.0638 µg/mL) and the MIC50 [6] was > 1.43 µM.
In the case of `Cc1cc(N2CCN(c3ccc(C(=O)Nc4cccc(C#N)n4)cc3)CC2)ccc1OC[C@@H]1CO[C@@](Cn2cncn2)(c2ccc(F)cc2F)C1` [Example 36, 4-(4-(4-(((3R, 5R)-5-((1H-1,2,4-triazol-1-yl)methyl)-5-(2,4-difluorophenyl)tetrahydrofuran-3-yl)methoxy)3-methylphenyl)piperazin-1-yl)-N-(6-cyanopyridin-2-yl)benzamide], the CC50 at 1 day [1] is reported as > 14.5 µM, the MIC [2] is reported as 0.041 µM (≈ 0.0283 µg/mL) and the MIC [3] is reported as 0.134 µM (≈ 0.0926 µg/mL). For the same compound, the MIC [4] was 0.0445 µM (≈ 0.0307 µg/mL), the MIC [5] was 0.0346 µM (≈ 0.0239 µg/mL) and the MIC50 [6] was 0.00352 µM (≈ 0.00243 µg/mL).
With `Cc1cc(N2CCN(c3ccc(C(=O)Nc4ccc(Cl)c(F)c4)cc3)CC2)ccc1OC[C@@H]1CO[C@@](Cn2cncn2)(c2ccc(F)cc2F)C1` [Example 30, 4-(4-(4-(((3R, 5R)-5-((1H-1,2,4-triazol-1-yl)methyl)-5-(2,4-difluorophenyl)tetrahydrofuran-3-yl)methoxy)-3-methylphenyl)piperazin-1-yl)-N-(4-chloro-3-fluorophenyl)benzamide] the CC50 at 1 day [1] was > 13.9 µM, the MIC [2] was 0.0584 µM (≈ 0.0419 µg/mL) and the MIC [3] was 0.191 µM (≈ 0.137 µg/mL). The MIC [4] was 0.0347 µM (≈ 0.0249 µg/mL), the MIC [5] was 0.0413 µM (≈ 0.0296 µg/mL) and the MIC50 [6] was 1.05 µM (≈ 0.753 µg/mL).
With `Cc1cc(N2CCN(c3ccc(C(=O)Nc4cccc(F)c4)cc3)CC2)ccc1OC[C@@H]1CO[C@@](Cn2cncn2)(c2ccc(F)cc2F)C1` [Example 14, 4-(4-(4-(((3R, 5R)-5-((1H-1,2,4-triazol-1-yl)methyl)-5-(2,4-difluorophenyl)tetrahydrofuran-3-yl)methoxy)3-methylphenyl)piperazin-1-yl)-N-(3-fluorophenyl)benzamide] the CC50 at 1 day [1] was > 14.6 µM, the MIC [2] was 0.0431 µM (≈ 0.0294 µg/mL) and the MIC [3] was 0.0735 µM (≈ 0.0502 µg/mL). It also gave an MIC [4] of 0.0332 µM (≈ 0.0227 µg/mL), an MIC [5] of 0.041 µM (≈ 0.028 µg/mL) and an MIC50 [6] of 0.00836 µM (≈ 0.00571 µg/mL).
For `Cc1cc(N2CCN(c3ccc(C(=O)Nc4cccc(C#N)c4)cc3)CC2)ccc1OC[C@@H]1CO[C@@](Cn2cncn2)(c2ccc(F)cc2F)C1` [Example 8, 4-(4-(4-(((3R,5R)-5-((1H-1,2,4-triazol-1-yl)methyl)-5-(2,4-difluorophenyl)tetrahydrofuran-3-yl)methoxy)-3-methylphenyl)piperazin-1-yl)-N-(3-cyanophenyl)benzamide], the CC50 at 1 day [1] was 0.548 µM, the MIC [2] was 0.0127 µM (≈ 0.00876 µg/mL) and the MIC [3] was > 1.45 µM. The MIC [4] was > 1.45 µM, the MIC [5] was > 1.45 µM and the MIC50 [6] was 0.0142 µM (≈ 0.00979 µg/mL).
In the case of `Cc1cc(N2CCN(c3ccc(C(=O)Nc4ccc(F)cc4)cc3C)CC2)ccc1OC[C@@H]1CO[C@@](Cn2cncn2)(c2ccc(F)cc2F)C1` [Example 32, 4-(4-(4-(((3R,5R)-5-((1H-1,2,4-triazol-1-yl)methyl)-5-(2,4-difluorophenyl)tetrahydrofuran-3-yl)methoxy)-3-methylphenyl)piperazin-1-yl)-N-(4-fluorophenyl)-3-methylbenzamide], the CC50 at 1 day [1] is reported as > 14.4 µM, the MIC [2] is reported as 0.0697 µM (≈ 0.0486 µg/mL) and the MIC [3] is reported as 0.0695 µM (≈ 0.0484 µg/mL). For the same compound, the MIC [4] was 0.0481 µM (≈ 0.0335 µg/mL), the MIC [5] was 0.0609 µM (≈ 0.0424 µg/mL) and the MIC50 [6] was 0.0261 µM (≈ 0.0182 µg/mL).
